Where “and” joins values, the source holds several entries; their conditions need not be identical. Equal entries are not always repeated.
Target: T1, ERBB4/ERBB4 (Homo sapiens, UniProt Q15303)
T1 construct: host or cells: U2OS (osteosarcoma cells), PathHunter engineered line
Assay: PathHunter U2OS ERBB4/ERBB4 dimerization assay, 96-well dose-response
Format: cell-based
Conditions: for ERBB4/ERBB4 dimerization signal: relative to signal with 0.1 µM NRG1, single biological replicates; for EC50: Fig. 1 panels b, f-l
Description: PathHunter U2OS ERBB4/ERBB4 (osteosarcoma cells; Eurofins, 93-0961C3), U2OS ERBB2/ERBB4 (osteosarcoma cells; Eurofins, 493-0960C3), ERBB2/ERBB3 (osteosarcoma cells; Eurofins, 93-1042C3) and ERBB1/ERBB1 (osteosarcoma cells; Eurofins, 93-0989C3) dimerization cell lines were cultured according to the manufacturer’s instructions. Briefly, cells were cultured in Cell Culture Reagent 103 (Eurofins, 92-3103 G) supplemented with 250 µg/mL Hygromycin B (Eurofins, 92-0029) and 500 µg/mL G418 (Eurofins, 92-0030), and were maintained at 37 °C in humidified atmosphere of 5% CO2. HCFs (Innoprot, P10454) were cultured in fibroblast medium (Innoprot, P60108) supplemented with 10% (v/v) fetal bovine serum (FBS, Innoprot), 10% (v/v) fibroblast growth supplement (Innoprot), and 1% (v/v) penicillin/streptomycin solution (Innoprot). iAMs[33] (kindly provided by LUMC) were cultured in Advanced DMEM F-12 (Thermo Fisher Scientific, 12634028) supplemented with 2% (v/v) heat-inactivated FBS (Thermo Fisher Scientific, 10270106), 1% (v/v) penicillin/streptomycin (10,000 units/mL and 10 mg/mL respectively, Thermo Fisher Scientific, 15140122), 1× GlutaMAX (Thermo Fisher Scientific, 35050061), and 100 ng/mL doxycycline (Tocris, 4090) for proliferation. To induce differentiation, iAMs were transferred to medium without doxycycline.
U2OS ERBB4/ERBB4 dimerization cells were seeded at a density of 5 × 10^4 cells/well in 100 µL Cell Plating 0 Reagent, in white 96-well plates (PerkinElmer, 6005680) and incubated for 24 h at 37 °C, 5% CO2. […] Next, 110 µL PathHunter Flash Detection Reagent was added to each well and incubated at RT for 1 h after which the luminescence signal was measured using the Luminoskan Ascent (Thermo Fisher Scientific). […] The same experimental set-up was used for the U2OS ERBB2/ERBB4, U2OS ERBB2/ERBB3 and U2OS ERBB1/ERBB1 dimerization cell lines.
Category Parameter Description
Assay Type of assay PathHunter Dimerization assays provide a robust, highly sensitive and easy-to-use cell-based functional assay to study various protein activities in a cell. The assay s use
Enzyme Fragment Complementation technology, where the b-galactosidase (b-gal) enzyme is split into two fragments, ProLink and Enzyme Acceptor. Independently these fragments have no b-gal activity. However, when forced to complement through protein-protein interactions, they form an active b-gal enzyme. The PathHunter Dimerization assay detects ligand induced dimerization of two subunits of a receptor-dimer pair. The cells have been engineered to co-express one receptor subunit (ERBB4) fused to Enzyme
Donor, and a second dimer partner (ERBB4) fused to Enzyme Acceptor. Binding of an agonist to one receptor subunit induces it to interact with its dimer partner, forcing complementation of the two enzyme […]
functional enzyme that hydrolyzes a substrate to generate a chemiluminescent signal.
Target ErbB4 receptor (RTK receptor)
Primary measurement Detection of chemiluminescent signal, induced by small-molecule ErbB4 agonists
Key reagents PathHunter Dimerization ErbB4/ErbB4 Cell
Line (93-0961C3) - PathHunter Flash
Detection Kit (03 -0247) - AssayComplete Cell
AssayComplete Cell Detachment Reagent
(92-0009) - AssayComplete Thawing Reagent
T3 (92-4103TR) - AssayComplete Freezing
Assay protocol https://www.discoverx.com/catalog/pathhun

T1 sequence (Q15303 26-1308): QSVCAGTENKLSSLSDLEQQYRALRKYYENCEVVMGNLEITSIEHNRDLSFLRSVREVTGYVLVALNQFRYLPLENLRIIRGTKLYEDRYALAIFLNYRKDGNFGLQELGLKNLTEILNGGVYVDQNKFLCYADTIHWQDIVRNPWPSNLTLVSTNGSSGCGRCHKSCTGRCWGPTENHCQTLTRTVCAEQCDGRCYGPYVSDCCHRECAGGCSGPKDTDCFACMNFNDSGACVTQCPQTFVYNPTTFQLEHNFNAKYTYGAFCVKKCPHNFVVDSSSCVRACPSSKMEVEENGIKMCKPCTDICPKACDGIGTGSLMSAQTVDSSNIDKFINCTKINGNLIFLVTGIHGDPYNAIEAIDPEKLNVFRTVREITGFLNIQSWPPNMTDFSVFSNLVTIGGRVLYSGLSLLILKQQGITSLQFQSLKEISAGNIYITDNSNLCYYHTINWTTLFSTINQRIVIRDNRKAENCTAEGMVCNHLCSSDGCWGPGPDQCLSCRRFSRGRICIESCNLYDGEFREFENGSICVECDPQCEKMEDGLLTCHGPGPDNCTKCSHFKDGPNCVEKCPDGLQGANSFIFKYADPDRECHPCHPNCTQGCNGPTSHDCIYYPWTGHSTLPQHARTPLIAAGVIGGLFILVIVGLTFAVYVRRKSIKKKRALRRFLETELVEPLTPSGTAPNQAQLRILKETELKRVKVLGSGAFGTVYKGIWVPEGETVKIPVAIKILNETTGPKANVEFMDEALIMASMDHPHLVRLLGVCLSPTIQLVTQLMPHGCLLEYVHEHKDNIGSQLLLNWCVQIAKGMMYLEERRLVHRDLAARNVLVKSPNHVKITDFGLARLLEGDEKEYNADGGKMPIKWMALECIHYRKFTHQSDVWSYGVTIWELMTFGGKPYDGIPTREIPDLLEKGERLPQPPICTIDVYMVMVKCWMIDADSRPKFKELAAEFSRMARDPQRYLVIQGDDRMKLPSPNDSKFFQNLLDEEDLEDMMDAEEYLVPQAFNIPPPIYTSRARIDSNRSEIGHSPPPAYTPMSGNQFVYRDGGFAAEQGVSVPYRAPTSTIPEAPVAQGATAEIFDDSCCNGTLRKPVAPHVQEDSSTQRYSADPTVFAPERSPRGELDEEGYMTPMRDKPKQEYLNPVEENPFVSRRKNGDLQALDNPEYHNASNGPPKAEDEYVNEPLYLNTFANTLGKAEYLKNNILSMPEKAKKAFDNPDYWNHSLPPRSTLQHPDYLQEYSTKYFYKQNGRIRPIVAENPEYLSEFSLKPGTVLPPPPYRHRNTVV
T1 sequence (Q15303 26-1308): as above

SMILES	ERBB4/ERBB4 dimerization signal (3.125e-8 M)	ERBB4/ERBB4 dimerization signal (6.25e-8 M)	ERBB4/ERBB4 dimerization signal (1.25e-7 M)	ERBB4/ERBB4 dimerization signal (2.5e-7 M)	ERBB4/ERBB4 dimerization signal (5e-7 M)	ERBB4/ERBB4 dimerization signal (1e-6 M)	ERBB4/ERBB4 dimerization signal (2e-6 M)	ERBB4/ERBB4 dimerization signal (4e-6 M)	ERBB4/ERBB4 dimerization signal (8e-6 M)	ERBB4/ERBB4 dimerization signal (1.6e-5 M)	ERBB4/ERBB4 dimerization signal (3.2e-5 M)	EC50	induction of ERBB4 dimerization (in words)
CC(=O)c1ccc(NC(=O)C(C)Sc2nc3ccccc3c(=O)n2C2CCCC2)cc1 (stereo not shown) [EF-2]	0	2.15 and 4.6 and 0.468 and 1.148	3.45 and 2.29 and 0.641 and 1.187	4.04 and 4.36 and 1.213 and -1.342	1.37 and 3.12 and 2.49 and 0.6545	2.5 and 5.02 and 2.238 and 2.209	4.33 and 4.8 and 3.759 and 4.682	3.95 and 4.91 and 4.578 and 5.322	8.72 and 7.12 and 6.167 and 6.988	9.4 and 10.69 and 8.539 and 7.868	12.78 and 12.75 and 7.517 and 9.504	3.3 µM	–
CC(Sc1nc2ccccc2c(=O)n1C1CCCC1)C(=O)N(C)c1ccccc1 (stereo not shown) [EF-3]	0	-1.21 and 2.4 and -0.0725	-1.21 and 2.26 and 0.6885	-1.52 and 3.09 and -0.0015	-1.8 and 4 and -1.488	-0.91 and 4.12 and -1.3115	-2.34 and 4.47 and -0.737	-2.82 and 3.65 and 0.377	-2.1 and 3.98 and 3.507	-0.15 and 7.88 and 11.189	10.32 and 12.81 and 17.0765	15.9 µM	–
CC(C)n1c(SC(C(=O)NC2CC2)c2ccccc2)nc2sc3c(c2c1=O)CCC3 (stereo not shown) [EF-4]	0	-0.82 and -1.6 and 0.98 and -1.282 and -1.385	-1.06 and 0.03 and 3.38 and -1.705 and 1.217	0.06 and -1.83 and 3.79 and -0.533 and -0.2429	0.37 and -1.62 and 3.34 and -1.138 and -0.1012	-0.43 and -1.64 and 5.89 and 0.03433 and 4.575	0.21 and 0.63 and 6.37 and 2.286 and 6.859	2.3 and -0.27 and 8.83 and 5.465 and 8.345	3.99 and 2.72 and 14.5 and 12.0003 and 11.0326	10.7 (2×) and 28.43 and 14.396 and 16.9022	14.22 and 10.37 and 32.96 and 14.248 and 12.7415	7.9 µM	–
O=C1NCCCCC1Sc1nc2sc3c(c2c(=O)n1C1CCCC1)CCCC3 (stereo not shown) [EF-5]	0	0.55 and -5.82 and -1.2625 and -2.273	-0.81 and -3.79 and -1.2155 and 0.9982	2.18 and -1.68 and -1.408 and 0.7189	0.6 and -0.22 and -2.045 and 0.5619	1.62 and -1.86 and -1.923 and 1.909	0.85 and -0.68 and -0.804 and 3.362	1.61 and 5.16 and 4.378 and 4.178	4.54 and 3.781 and 4.611	16.34 and 17.63 and 4.256 and 4.3885	15.88 and 18.62 and 11.2465 and 8.67	6.8 µM	induced ERBB4 dimerization in a concentration-dependent manner
Cc1sc2nc(SC(C)C(=O)Nc3sccc3C(N)=O)n(CC(C)C)c(=O)c2c1C (stereo not shown) [EF-6]	0	-10.54 and 0.126 and -1.899	-0.74 and -11.14 and 0.573 and -2.081	-11.05 and 1.316 and 0.08162	-1.14 and -8.91 and 2.656 and 0.4928	-7.05 and 2.748 and 1.042	-1.29 and -3.55 and 2.61 and 5.158	3.35 and 5.191 and 6.31	7.22 and 8.65 and 7.634 and 6.661	15.88 and 10.304 and 5.283	10.39 and 15.72 and 13.149 and 5.2549	7.4 µM	induced ERBB4 dimerization in a concentration-dependent manner
CC(Sc1nc2ccccc2c(=O)n1C1CCCC1)c1nc2ccccc2n1C(F)F (stereo not shown) [EF-7]	0	1.834 and 3.035 and 0.03 and -1.937	-0.545 and 2.505 and -0.7885 and 2.028	4.185 and 4.81 and -0.3825 and 0.1978	-2.369 and -1.66 and -2.1805 and 0.9417	-1.082 and -1.615 and -1.204 and 2.348	-0.26 and -0.926 and -0.8585 and 4.47	0.729 and 3.237 and 0.665 and 4.903	3.996 and 7.56 and 2.421 and 5.8011	6.204 and 12.704 and 5.9735 and 4.731	9.166 and 15.395 and 6.6065 and 4.169	4.4 µM	induced ERBB4 dimerization in a concentration-dependent manner
Cc1sc2nc(SCC(=O)NC(C)(C#N)C(C)C)n(C3CCCC3)c(=O)c2c1C (stereo not shown) [EF-8]	0	-2.398 and 2.948 and -2.16 and -2.631	-3.058 and 0.945 and -1.747 and 1.488	-2.005 and -2.555 and -0.053 and 1.532	-2.09 and -2.305 and 2.13 and 0.7408	-1.274 and -2.984 and 1.804 and 0.1664	-1.378 and -1.267 and 1.368 and 2.734	-1.56 and -0.487 and 3.629 and 7.521	-0.129 and 2.382 and 5.053 and 7.016	5.735 and 10.567 and 10.209 and 8.435	13.012 and 24.912 and 17.432	14 µM	induced ERBB4 dimerization in a concentration-dependent manner

Reference: article PMC11724075, “Small-molecule-induced ERBB4 activation to treat heart failure” (Nature Communications, 2025)
